Measured values: patent US6372727B1, “Metalloporphyrin treatment of neurologic disease” (UAB Research Foundation, priority 1999, dated 2002)

How the values were obtained:
[1] = system: ALS-SOD1 (G93A) transgenic mice; conditions: cited from earlier work
[2] = Peroxynitrite-mediated nitration of GYA peptide; assay type: biochemical; conditions: 2 mM GYA, 10 μM MP or SOD subunit, 1 mM CO2, pH 7.4, 37° C.
Method: Nitration efficiency, defined as the moles of nitrated GYA peptide formed per mole of peroxynitrite added, was determined at a fixed concentration of 10 μM MP or Cu,Zn SOD subunit, or 1 mM CO2 as described below. Increasing amounts of peroxynitrite were added in a sequential manner in order to determine whether nitration efficiency varied with concentration and to determine whether nitration catalysis was maintained with multiple additions (see INSET). Nitration efficiency was calculated for each peroxynitrite addition; the values shown are the average of all nine peroxynitrite additions. Absorbance changes were monitored simultaneously at 380, 430, and 460 nm.
For nitration of GYA peptide (see FIG. 6), reaction solutions contained 2 mM GYA and 10 μM of the indicated MP in 1.4 ml of 0.1 M potassium phosphate, pH 7.4 at 37° C. Comparisons with two previously characterized nitration catalysts, human Cu,Zn superoxide dismutase (hCu,Zn SOD) and carbon dioxide, were made using 10 μM of SOD subunit and 25 mM potassium bicarbonate, respectively, which was pH-adjusted to 7.4. This level of bicarbonate results in rapid saturation of the solution with carbon dioxide (˜1 mM). Solutions were placed into a rapidly stirred cuvette and nine bolus additions (50 μM×3, 100 μM×3, and 200 μM×3) of peroxynitrite were made sequentially while the absorbance was monitored. Increasing amounts of peroxynitrite were added in a sequential manner in order to determine whether nitration efficiency varied with concentration and to determine whether nitration catalysis was maintained with multiple additions (see FIG. 6 inset). Nitration efficiency was defined as the amount of nitropeptide formed per amount of peroxynitrite added and was calculated for each peroxynitrite addition; the values shown are the average of all nine peroxynitrite additions. The absorbance changes associated with nitrotyrosine peptide production were monitored simultaneously at 380, 430, and 460 nm. The extinction coefficients for nitrated GYA at pH 7.4 are 4,400 M^−1cm^−1 at 430 nm and 2,200 M^−1cm^−1 at both 380 and 460 nm. […] Wavelengths used to quantify nitrotyrosine production were chosen to minimize interference by the particular metalloporphyrin used. Experiments using HPA as a nitration target (FIG. 7) contained 8 mM HPA in either 0.1 M potassium phosphate, pH 7.4 or 0.1 M sodium borate, pH 9.1.
The relative abilities of several MPs to enhance nitration of the tripeptide GYA was compared using 10 μM MP and sequential bolus additions of 50 μM (×3), 100 μM (×3), and 200 μM (×3)peroxynitrite (FIG. 6, inset).

[3] = references (43), (5); cited from earlier work
bovine serum albumin = conditions: reference (35); cited from earlier work

Nc1nc2ccc(OC(F)(F)F)cc2s1 [Rilutek, riluzole]
extension of lifespan [1]: about 7 days

Cu,Zn superoxide dismutase: human Cu,Zn superoxide dismutase, previously characterized endogenous nitration catalyst
enhancement of nitration yield [2]: 2 fold
rate of reaction with superoxide [3]: 2e+09 M⁻¹ s⁻¹

iron(III)-tetra-(2,4,6,-trimethyl-3-,3-disulfonatophenyl)-porphyrin [FeTMPS]
nitration of tyrosine residues in bovine serum albumin (bovine serum albumin): inhibited
